Here are results for one compound from article PMC5662078, “Doliroside A from Dolichos falcata Klein suppressing amyloid β-protein 42 fibrillogenesis: An insight at molecular level” (PLoS ONE, 2017).

This assay concerns the target T1, amyloid β-protein 42 (Aβ42) (Homo sapiens, UniProt P05067).
T1 construct: gene APP
Kind of assay: ThT fluorescence fibrillation assay of synthetic Aβ[…]); supported by DSC Tm shifts, CD and AFM. The format is biochemical. A general note: In DSC, transitions show as peaks or steps in heat flow.

T1 sequence (P05067 672-713): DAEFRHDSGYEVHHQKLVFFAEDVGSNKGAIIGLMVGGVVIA

As usually defined, the IC50 is the concentration needed to halve the response being measured. Regarding `COC(=O)[C@]1(C)C(OC2OC(CO)C(O)C(O)C2O)[C@@H](O)C[C@@]2(C)C1CC[C@]1(C)C2CC=C2[C@@H]3CC(C)(C)CCC3(C(=O)O)CC[C@]21C` (stereo partly shown) [DA, doliroside A], the 50% inhibitory concentration (IC50) came out at 26.6 ± 1.6 µM.
